The test system of assay [1] is Human mast cell line LAD cells. Put plainly: Degranulation test using human mast cell line LAD cells. The assay is classed as cell-based. The conditions noted are these: IgE-sensitized LAD cells, anti-human IgE stimulation, β-hexosaminidase release, read-out: degranulation inhibitory activity IC50. As for the experimental part:
Human mast cell line LAD cells were sensitized with human IgE (Cosmo Bio; final concentration 1 μg/ml) overnight. The cells were harvested, and then washed with PBS (Invitrogen) and washed again with Tyrode's buffer solution (Sigma) containing 0.1% BSA (Sigma). The cells were seeded into a 96-well plate at 10^5 cells/well and then the compound (0.1% final concentration DMSO solution) was added, followed by incubation at 37° C. for 15 minutes. Rabbit anti-human IgE (Dako Japan; final concentration 10 μg/ml) or control Ig (Dako Japan; final concentration 10 μg/ml) was added, followed by incubation at 37° C. for 30 minutes. The supernatant was recovered and p-nitrophenyl-2-acetamido-2-deoxy-β-D-glucopyranoside (Sigma; final concentration 4 mM), a substrate of β-hexosaminidase which is an index of degranulation, was added, followed by incubation at 37° C. for 45 minutes. Glycine (Wako; final concentration 0.2 M, pH 10.4) was added and the reaction was terminated. Then, the absorbance at 405 nm was measured.
The inhibition rate (%) was calculated as (anti-IgE antibody degranulation rate—compound-added group degranulation rate)/(anti-IgE antibody degranulation rate—control antibody degranulation rate)×100. The IC50 value was calculated from the inhibition rate at each concentration and used as an index of inhibitory activity.

The next assay has as its target T1, Abl (Homo sapiens, UniProt P00519).
T1 construct: purchased Wako Pure Chemical Industries
Put plainly: Abl inhibition test. The assay is classed as biochemical. The conditions noted are these: Abltide substrate, ATP 6 μM, [γ-33P]ATP, 40 minutes room temperature; read-out: Abl inhibitory activity IC50. As for the experimental part: 5 ng/5 μl/well of an Abl (Wako Pure Chemical Industries) solution, 30 μl of an Abltide substrate peptide solution (Wako Pure Chemical Industries; final concentration 5 μM) and 5 μl of a test substance solution were added to a 96-well plate (Corning), followed by incubation at room temperature for 15 minutes. Then, 10 μl of an ATP mixture (ATP: Oriental Yeast, final concentration 6 μM, [γ-33P]ATP: GE Healthcare Biosciences, 0.06 μCi/well, MgAcetate: Cosmo Bio, final concentration 10 mM) was added, followed by incubation at room temperature for 40 minutes. The Abl solution was prepared using a kinase buffer (20 mM MOPS pH 7.0, 1 mM EDTA, 0.1% β-mercaptoethanol, 0.01% Brij-35, 5% glycerol, 1 mg/ml BSA). The substrate peptide solution and the ATP mixture were prepared using 8 mM MOPS pH 7.0 and 0.2 mM
EDTA. The test substance solution was made by dissolving the test substance in DMSO at each concentration. The final concentration of DMSO was 1%. The reaction was terminated by adding 100 μl of a 100 mM phosphoric acid solution as a reaction terminator. Then, the total reaction solution was transferred to a 96-well MultiScreen plate (Millipore) and washed with 200 μl of 100 mM phosphoric acid three times. After drying, 20 μl of MicroScint-O (PerkinElmer) was added and the radioactivity was measured by TopCount (PerkinElmer). After subtracting the radioactivity in the well to which the Abltide substrate peptide was not added from each radioactivity, the ratio of the radioactivity when the test substance was added to the radioactivity when the test substance was not added was determined. The IC50 value was calculated from the inhibition rate at each concentration and used as an index of inhibitory activity.

Another assay has as its target T2, Syk (Homo sapiens, UniProt P43405).
T2 construct: purchased Wako Pure Chemical Industries
Put plainly: Syk inhibition test. The conditions noted are these: poly(L-glu-L-tyr) substrate, ATP 5 μM, [γ-33P]ATP, 30 minutes room temperature; read-out: Syk inhibitory activity IC50. The assay is classed as biochemical. The protocol: 10 ng/10 μl/well of a Syk (Wako Pure Chemical Industries) solution, 15 μl of a poly(L-glu-L-tyr) substrate peptide solution (Sigma, final concentration 5 μM), 20 μl of an ATP mixture (ATP: Oriental Yeast, final concentration 5 μM, [γ-33P]ATP: GE Healthcare Biosciences, 0.1 μCi/well) and 5 μl of a test substance solution were added to a 96-well Corning reaction plate, followed by incubation at room temperature for 30 minutes. An assay buffer containing 50 mM Tris pH 7.5, 10 mM MgCl2, 0.1 mM Na3VO4, 1 mM DTT, 0.01% CHAPS and 100 μg/ml BSA was used. The test substance solution was made by dissolving the test substance in DMSO at each concentration. The final concentration of DMSO was 1%. The reaction was terminated by adding 100 μl of a 120 mM phosphoric acid solution as a reaction terminator. Then, the total reaction solution was transferred to MultiScreen (Millipore) and washed with 200 μl of 100 mM phosphoric acid four times.
After drying, 20 μl of MicroScint-O (PerkinElmer) was added and the radioactivity was measured by TopCount (PerkinElmer). The ratio of the radioactivity when the test substance was added to the radioactivity when the test substance was not added was determined. The IC50 value was calculated from the inhibition rate at each concentration and used as an index of inhibitory activity.

T1 sequence (P00519 whole entry, species assumed): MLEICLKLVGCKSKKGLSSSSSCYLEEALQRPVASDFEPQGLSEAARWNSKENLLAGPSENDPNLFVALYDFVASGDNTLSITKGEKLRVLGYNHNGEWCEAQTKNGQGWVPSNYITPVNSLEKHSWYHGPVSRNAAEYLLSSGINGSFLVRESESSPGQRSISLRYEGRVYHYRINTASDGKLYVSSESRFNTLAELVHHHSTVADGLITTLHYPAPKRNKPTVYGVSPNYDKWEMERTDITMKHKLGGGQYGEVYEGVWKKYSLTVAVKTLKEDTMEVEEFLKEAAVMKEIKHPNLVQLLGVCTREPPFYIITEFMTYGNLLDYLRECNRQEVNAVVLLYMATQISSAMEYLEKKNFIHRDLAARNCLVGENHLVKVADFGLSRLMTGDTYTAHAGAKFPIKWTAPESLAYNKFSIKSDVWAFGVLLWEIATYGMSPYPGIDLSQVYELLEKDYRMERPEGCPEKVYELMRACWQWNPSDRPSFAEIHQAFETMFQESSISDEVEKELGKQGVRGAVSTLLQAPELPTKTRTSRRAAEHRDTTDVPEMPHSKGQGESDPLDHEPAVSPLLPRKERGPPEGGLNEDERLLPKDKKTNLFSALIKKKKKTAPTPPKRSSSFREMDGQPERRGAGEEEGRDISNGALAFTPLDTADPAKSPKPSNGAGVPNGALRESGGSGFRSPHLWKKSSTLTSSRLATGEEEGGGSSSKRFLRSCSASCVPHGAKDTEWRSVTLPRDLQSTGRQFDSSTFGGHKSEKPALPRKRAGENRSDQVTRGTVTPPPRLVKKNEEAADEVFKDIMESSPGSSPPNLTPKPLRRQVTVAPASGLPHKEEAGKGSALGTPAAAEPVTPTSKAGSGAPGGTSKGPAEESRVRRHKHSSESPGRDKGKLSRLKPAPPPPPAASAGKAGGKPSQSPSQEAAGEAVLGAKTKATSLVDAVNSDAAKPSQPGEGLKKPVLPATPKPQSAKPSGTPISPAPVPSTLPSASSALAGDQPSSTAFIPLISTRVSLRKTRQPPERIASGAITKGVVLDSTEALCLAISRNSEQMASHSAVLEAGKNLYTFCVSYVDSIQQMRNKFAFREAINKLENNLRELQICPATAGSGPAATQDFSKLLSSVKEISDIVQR

A word on the IC50: it is the concentration needed to halve the response being measured. For `C[S+]([O-])c1n[nH]c2nc(Nc3ccc(N4CCOCC4)cc3)nc(NC3CC3)c12` (stereo not shown) [Compound 4, N^4-Cyclopropyl-3-(methylsulfinyl)-N^6-(4-morpholin-4-ylphenyl)-1H-pyrazolo[3,4-d]pyrimidine-4,6-diamine], the half-maximal inhibitory concentration (IC50) in assay [1] was at most 100 nM.
The same measure, in the same setting: next, `CSc1n[nH]c2nc(Nc3ccc(N4CCOCC4)cc3)nc(NC3CC3)c12` [Compound 13, N^4-Cyclopropyl-3-(methylsulfanyl)-N^6-(4-morpholin-4-ylphenyl)-1H-pyrazolo[3,4-d]pyrimidine-4,6-diamine]: at most 100 nM.
`CS(=O)(=O)c1n[nH]c2nc(Nc3ccc4[nH]cnc4c3)nc(NC3CC3)c12` [Compound 21]: the 50% inhibitory concentration (IC50) on Abl is at most 50 nM.
In the case of `Cc1cc(Nc2nc(NC3CC3)c3c(S(C)(=O)=O)n[nH]c3n2)ccc1N1CCOCC1` [Compound 38], at Abl, the IC50 was at most 50 nM.
Take `CC(C)(C)Nc1nc(Nc2ccc(N3CCOCC3)cc2)nc2[nH]nc(S(C)(=O)=O)c12` [Compound 55]: the IC50 on Abl was at most 10 nM.
Still for that read-out and setting: to `CS(=O)(=O)c1n[nH]c2nc(Nc3ccc(N4CCOCC4)cc3)nc(NCCCC(N)=O)c12` [Compound 60] belongs at most 50 nM.
With `CS(=O)(=O)c1n[nH]c2nc(Nc3ccc(N4CCNCC4)cc3)nc(NC3CC3)c12` [Compound 74], the IC50 is at most 10 nM at Abl, at most 200 nM at Syk and at most 100 nM in assay [1].
On to `CS(=O)(=O)c1n[nH]c2nc(Nc3ccc(N4CCCC(O)C4)cc3)nc(NC3CC3)c12` (stereo not shown) [Compound 78], for which the IC50 at Abl is at most 10 nM.
`CS(=O)(=O)c1n[nH]c2nc(Nc3ccc(N4CCC(=O)CC4)cc3)nc(NC3CC3)c12` [Compound 88]: the half-inhibitory concentration (IC50) in assay [1] was at most 100 nM.
`CSc1n[nH]c2nc(Nc3ccc(N4CCOCC4)cc3)nc(NCCCCN)c12` [Compound 102]: the half-maximal inhibitory concentration (IC50) on Abl was at most 50 nM; on Syk, at most 200 nM; in assay [1], at most 100 nM.
On to `CS(=O)(=O)c1n[nH]c2nc(Nc3ccc(N4CCOCC4)cc3)nc(NC3CCCC3)c12` [Compound 103], for which the 50% inhibitory concentration (IC50) at Abl was at most 50 nM.
Take `CS(=O)(=O)c1n[nH]c2nc(Nc3ccc(N4CCOCC4)cc3)nc(NCCCCN)c12` [Compound 107]: the values for the IC50 (at Abl; at Syk; in assay [1]) were at most 50 nM, at most 200 nM and at most 100 nM, respectively.
As to `CCSc1n[nH]c2nc(Nc3ccc(N4CCOCC4)cc3)nc(NC3CC3)c12` [Compound 108], the IC50 at Abl was at most 50 nM.
With `CSc1n[nH]c2nc(Nc3ccc(N4CCOCC4)cc3)nc(NCCCCCN)c12` [Compound 110], the IC50 at Abl was at most 50 nM.
Regarding `CSc1n[nH]c2nc(Nc3ccc(N4CCOCC4)cc3)nc(N[C@H]3CC[C@@H](N)CC3)c12` [Compound 112], the half-maximal inhibitory concentration (IC50) on Abl is at most 10 nM; on Syk, 20 nM; in assay [1] it was 19 nM.
For `CCSc1n[nH]c2nc(Nc3ccc(N4CCOCC4)cc3)nc(NCCCCN)c12` [Compound 114], the IC50 on Abl was at most 50 nM; at Syk, at most 200 nM.
The matching figures for `CCSc1n[nH]c2nc(Nc3ccc(N4CCOCC4)cc3)nc(N[C@H]3CC[C@H](N)CC3)c12` [Compound 115]: at most 10 nM and at most 200 nM.
For `CNCCCCNc1nc(Nc2ccc(N3CCOCC3)cc2)nc2[nH]nc(SC)c12` [Compound 116], on Abl, the IC50 was at most 50 nM.
With `CS(=O)(=O)c1n[nH]c2nc(Nc3ccc(N4CCOCC4)cc3)nc(N[C@H]3CC[C@@H](N)CC3)c12` [Compound 117, N^4-(cis-4-Aminocyclohexyl)-3-(methylsulfonyl)-N^6-(4-morpholin-4-ylphenyl)-1H-pyrazolo[3,4-d]pyrimidine-4,6-diamine], the concentration for half-maximal inhibition (IC50) on Abl was at most 10 nM.
Consider `CC(C)Sc1n[nH]c2nc(Nc3ccc(N4CCOCC4)cc3)nc(N[C@H]3CC[C@@H](N)CC3)c12` [Compound 119], for which, at Abl, the concentration for half-maximal inhibition (IC50) was at most 10 nM.
Same read-out and setting: to `CS(=O)(=O)c1n[nH]c2nc(Nc3ccc(N4CCC(CO)CC4)cc3)nc(NC3CC3)c12` [Compound 126] belongs at most 10 nM.
Turning to `CN(C)C(=O)C1CCN(c2ccc(Nc3nc(NC4CC4)c4c(S(C)(=O)=O)n[nH]c4n3)cc2)CC1` [Compound 128], the IC50 at Abl is at most 50 nM; at Syk it was at most 200 nM; in assay [1] it was at most 100 nM.
Turning to `CS(=O)(=O)c1n[nH]c2nc(Nc3ccc(N4CCCC(C(N)=O)C4)cc3)nc(NC3CC3)c12` (stereo not shown) [Compound 132], the IC50 on Abl was at most 10 nM.
In the case of `CCN1CCN(c2ccc(Nc3nc(NC4CC4)c4c(S(C)(=O)=O)n[nH]c4n3)cc2)CC1` [Compound 135], the IC50 at Syk was at most 200 nM; in assay [1], at most 100 nM.
On to `CC(C)N1CCN(c2ccc(Nc3nc(NC4CC4)c4c(S(C)(=O)=O)n[nH]c4n3)cc2)CC1` [Compound 138], for which the IC50 at Syk was at most 200 nM; in assay [1], at most 100 nM.
On to `CS(=O)(=O)c1n[nH]c2nc(Nc3ccc(N4CCN(S(C)(=O)=O)CC4)cc3)nc(NC3CC3)c12` [Compound 146], for which the IC50 was at most 10 nM on Abl and at most 200 nM on Syk.
`CNC(=O)COc1cccc(Nc2nc(NC3CC3)c3c(S(C)(=O)=O)n[nH]c3n2)c1` [Compound 150]: the 50% inhibitory concentration (IC50) on Abl was at most 50 nM.
Consider `CNS(=O)(=O)c1ccc(Nc2nc(NC3CC3)c3c(S(C)(=O)=O)n[nH]c3n2)cc1` [Compound 152], for which the IC50 on Abl is at most 10 nM.
On the same count and under the same terms, to `CS(=O)(=O)c1n[nH]c2nc(Nc3ccc(N4CCOCC4)cc3)nc(Nc3ccccc3C(N)=O)c12` [Compound 188] belongs at most 50 nM.
`CSc1n[nH]c2nc(Nc3ccc(N4CCOCC4)cc3)nc(Nc3ccc4nc[nH]c4c3)c12` [Compound 192]: the IC50 on Abl is at most 50 nM.
On to `CSc1n[nH]c2nc(Nc3ccc(N4CCOCC4)cc3)nc(NCCc3c[nH]cn3)c12` [Compound 200], for which the IC50 on Abl is at most 10 nM.
As to `CSc1n[nH]c2nc(Nc3ccc(N4CCOCC4)cc3)nc(Nc3ccc4cn[nH]c4c3)c12` [Compound 206], the 50% inhibitory concentration (IC50) at Abl is at most 50 nM.
Same read-out and setting: next, `CSc1n[nH]c2nc(Nc3ccc(N4CCOCC4)cc3)nc(Nc3ccc4[nH]c(O)nc4c3)c12` [Compound 208]: at most 50 nM; `N[C@H]1CC[C@@H](Nc2nc(Nc3ccc(N4CCOCC4)cc3)nc3[nH]ncc23)CC1` [Compound 216, N^4-(cis-4-Aminocyclohexyl)-N^6-(4-morpholinophenyl)-1H-pyrazolo[3,4-d]pyrimidine-4,6-diamine]: at most 10 nM; `N[C@H]1CC[C@@H](Oc2nc(Nc3ccc(N4CCOCC4)cc3)nc3[nH]ncc23)CC1` [Compound 217, cis-4-(4-Aminocyclohexyloxy)-N-(4-morpholinophenyl)-1H-pyrazolo[3,4-d]pyrimidin-6-amine]: at most 10 nM.
For the molecule `CS(=O)(=O)c1n[nH]c2nc(Nc3ccc(-c4ccc(C(=O)O)cc4)cc3)nc(NC3CC3)c12` [Compound 227], the half-maximal inhibitory concentration (IC50) on Abl was at most 50 nM.
On the same count and under the same terms, next, `CC1CN(C(=O)c2ccc(Nc3nc(NC4CC4)c4c(S(C)(=O)=O)n[nH]c4n3)cc2)CC(C)O1` (stereo not shown) [Compound 240]: at most 50 nM.

Values taken from patent US20100298557A1, “PYRAZOLOPYRIMIDINE COMPOUND” (Taisho Pharmaceutical Co., Ltd, priority 2006, published 2010).
